A short description of the data set: in vitro. The settings on record: human, hela cells.

Results on 57 molecules are retold here after publication PMC12040169 (PLOS Biology, 2025).

By viability is commonly meant a read-out of living cells in per cent, often relative to untreated cells. `CC(=O)N1C[C@@H]2C[C@H](C1)c1ccc(NS(=O)(=O)c3cccc(F)c3)c(=O)n1C2` [CBK288710]: for the setting “% viability”, the viability at 28.5 h, 10 µM turned out to be 105%. Regarding `Clc1ccc(-n2ncc(-c3ccsc3)n2)cc1Cl` [CBK112843], the viability at 28.5 h, 10 µM (% viability) turned out to be 96.3%. Regarding `c1ccc2[nH]c(CCSCCc3nc4ccccc4[nH]3)nc2c1` [CBK023949], for the setting “% viability”, the viability at 28.5 h, 10 µM worked out at 86%.

As to `O=C(O)c1cccc(NS(=O)(=O)c2ccc(Br)cc2F)c1` [CBK155691], the viability at 28.5 h, 10 µM (% viability) amounted to 95.6%. Consider `COc1ccc([C@H]2CN(C(=O)c3ccccc3)[C@@H]3CCN(Cc4ccccc4C)C[C@H]23)cc1` [CBK285583], for which the viability at 28.5 h, 10 µM (% viability) was 105%. `Cc1ccc(N2C(=O)c3ccccc3C2Nc2ccccc2)nc1` (stereo not drawn) [CBK113238]: where the note is “% viability”, the viability at 28.5 h, 10 µM was 101%. Turning to `N#Cc1c(NC(=O)COc2ccc(Cl)cc2)oc(-c2ccccc2)c1-c1ccccc1` [CBK262938], the viability at 28.5 h, 10 µM (% viability) worked out at 91.5%.

For `Cc1sc(-c2c(F)cccc2F)nc1O` [CBK067729], for the setting “% viability”, the viability at 28.5 h, 10 µM came to 102%. Same read-out and setting: the same measure for `COc1nc(SC)nc2[nH]ccc12` [CBK085861]: 95%. In the case of `c1ccc(Cn2cc(-c3nccnc3OCCn3ccnc3)cn2)cc1` [CBK107102], the viability at 28.5 h, 10 µM (% viability) was found to be 95.5%. Consider `O=C(COC(=O)c1cc(S(=O)(=O)N2CCCCC2)c(Cl)cc1Cl)c1ccccc1` [CBK261668], for which, under “% viability”, the viability at 28.5 h, 10 µM is 101%. On to `CC12CCC(C(=O)O)(C/C1=N\N)C2(C)C` (stereo not drawn) [CBK265268], for which, where the note is “% viability”, the viability at 28.5 h, 10 µM came out at 113%. As for `CC(NS(=O)(=O)c1cccs1)c1ccccc1` (stereo not drawn) [CBK043601], the viability at 28.5 h, 10 µM (% viability) is 114%.

As to `Cc1nc(CN2C(=O)CC(Cc3cnn(C)c3)C2=O)nc2ccccc12` (stereo not drawn) [CBK305415], the viability at 28.5 h, 10 µM (% viability) was 105%.

On to `O=C(c1ccccc1)N1C[C@@H](c2ccsc2)[C@@H]2CN(Cc3ccc(Cl)cc3)CC[C@@H]21` [CBK285615], for which the viability at 28.5 h, 10 µM (% viability) was 100%. The same measure, in the same setting: the figure for `O=C(CC(C(=O)O)N1CCOCC1)Nc1ccccc1` (stereo not drawn) [CBK267008] is 111%; for `Cc1[nH]c2ccccc2c1C(=O)CCC(=O)O` [CBK260871] it is 95.5%; for `COc1ccc(C(=O)Nc2nc(-c3ccc4c(c3)OCCO4)cs2)cc1OC` [CBK287588] it is 92.5%. As to `COc1ccc(N(C)C(=O)c2ccc(Cn3nc(NC(=O)Cc4ccc5c(c4)OCO5)c4ccccc43)cc2)cc1` [CBK059530], for the setting “% viability”, the viability at 28.5 h, 10 µM was found to be 103%. Same read-out and setting: the figure for `CS(=O)(=O)N(Cc1ccco1)Cc1cc2ccccc2nc1O` [CBK269434] is 111%; for `COc1ccc(NC2=NC(=O)CC(C(=O)Nc3ccc(C)c(C)c3)N2)cc1` (stereo not drawn) [CBK269359] it is 104%; for `COc1ccc(-c2nc(-c3cccs3)cnc2N)cc1OC` [CBK063981] it is 107%.

Consider `Cc1cc(OCC(=O)Nc2nc[nH]n2)ccc1Cl` [CBK264321], for which the viability at 28.5 h, 10 µM (% viability) amounted to 117%. For `COc1ncc(-c2nccnc2OCC2COc3ccccc3O2)c(OC)n1` (stereo not drawn) [CBK106754], the viability at 28.5 h, 10 µM (% viability) stood at 102%. In the case of `Cc1nc(C2CCCN(C(=O)c3cccnc3)C2)c2sccn12` (stereo not drawn) [CBK285233], under “% viability”, the viability at 28.5 h, 10 µM is 93%.

Turning to `C=CCN(C)C(=O)[C@H]1C[C@@H](O)[C@H](O)[C@@H]2N=C(Nc3ccc(OC)cc3)S[C@@H]21` [CBK288947], the viability at 28.5 h, 10 µM (% viability) was 97.1%. For `Cc1nc(N2CCCCC2)ncc1C(=O)NCc1nonc1C` [CBK307243], the viability at 28.5 h, 10 µM (% viability) turned out to be 87.7%. Consider `COc1cc(-c2nccnc2N[C@@H](CO)C(C)C)cc(OC)c1OC` [CBK038023], for which the viability at 28.5 h, 10 µM (% viability) is 111%.

For `COc1ccc(Cl)cc1N1CCN(Cc2ccc(OC(F)(F)F)cc2)CC1` [CBK126405], the viability at 28.5 h, 10 µM (% viability) is 104%. As for `O=C(/C=C/c1cccc([N+](=O)[O-])c1)NC(=S)Nc1ccc(-c2nc3ccccc3[nH]2)cc1` [CBK264376], the viability at 28.5 h, 10 µM (% viability) was 102%. Consider `NC(=O)C1CCN(CC(=O)Nc2ccc([N+](=O)[O-])cc2C(=O)c2ccccc2)CC1` [CBK265782], for which the viability at 28.5 h, 10 µM (% viability) was 89.3%.

`CNS(=O)(=O)CCNC(=O)N1CCCN(Cc2ccc(F)cc2)CC1` [CBK304658]: the viability at 28.5 h, 10 µM (% viability) is 88.8%.

`Cc1cccc(C2(O)CCN(C(=O)CCCc3ccncc3)CC2)c1` [CBK282506]: the viability at 28.5 h, 10 µM (% viability) was determined as 111%.

`OCCOc1ccccc1OCCO` [CBK260930]: under “% viability”, the viability at 28.5 h, 10 µM was 93.6%. Take `COc1ccc(F)c(CN(CC(C)(C)CN)C(=O)Nc2ccc(C(C)(C)C)cc2)c1` [CBK002461C]: the viability at 28.5 h, 10 µM (% viability) turned out to be 94%.

For `O=S(=O)(Nc1cccc(-c2cnco2)c1)c1ccc(-c2cc(C(F)(F)F)on2)s1` [CBK067124], the viability at 28.5 h, 10 µM (% viability) amounted to 100%. For the molecule `CN1CCN(Cc2nc3c(c(=O)n(C)c(=O)n3C)n2Cc2c(F)cccc2Cl)CC1` [CBK269179], the viability at 28.5 h, 10 µM (% viability) was determined as 98.3%. As for `CCOC(=O)c1cn(CC)c2cc(N3CCSCC3)c(F)cc2c1=O` [CBK307143], for the setting “% viability”, the viability at 28.5 h, 10 µM was found to be 89.8%. On to `O=C(Nc1cccc(C(F)(F)F)c1)c1cnsn1` [CBK018923], for which, where the note is “% viability”, the viability at 28.5 h, 10 µM was found to be 88.9%. As for `CN1C(=O)C(=Cc2ccc(-c3cccc([N+](=O)[O-])c3)o2)C(=O)N(C)C1=S` [CBK263903], the viability at 28.5 h, 10 µM (% viability, bulk resorufin, single well) was found to be 95.1%. As for `CS(=O)(=O)c1ccc(-c2c[nH]c([C@@H]3COCCN3Cc3ccc(C(=O)O)cc3)n2)cc1` [CBK289306], the viability at 28.5 h, 10 µM (% viability) was determined as 97.3%. For `CC(=O)NC1(c2ccc(F)cc2)CCN(Cc2cccnc2)CC1` [CBK283610], for the setting “% viability”, the viability at 28.5 h, 10 µM is 103%. As to `CN(CCN(C)/N=C/c1cccc2ccccc12)/N=C/c1cccc2ccccc12` [CBK262153], the viability at 28.5 h, 10 µM (% viability) turned out to be 107%.

For `O=P(O)(O)/C=C(\Cl)c1ccccc1` [CBK261019], the viability at 28.5 h, 10 µM was 97.8%. Regarding `O=C(Nc1ccc2c(c1)CS(=O)(=O)C2)c1cccs1` [CBK057563], under “% viability”, the viability at 28.5 h, 10 µM was 113%. For `COC1C(O)C(CO)OC1n1cnc2c(N)nc(N)nc21` (stereo not drawn) [CBK201241], the viability at 28.5 h, 10 µM (% viability) was determined as 95.4%. As for `O=C1NC2(CCc3ccccc31)CCN(C/C=C/c1cccnc1)C2` (stereo not drawn) [CBK284622], for the setting “% viability”, the viability at 28.5 h, 10 µM is 86.2%. Still for that read-out and setting: the figure for `N#Cc1c(SCC(=O)N2CCc3ccccc3C2)nsc1SCC(=O)N1CCc2ccccc2C1` [CBK267453] is 93.6%.

As to `COc1ccc(-n2ncc(-c3cccnc3)n2)cn1` [CBK112827], the viability at 28.5 h, 10 µM (% viability) is 96.7%. Take `Cc1ccc(S(=O)(=O)Nc2ccc3c(ccn3CCOC3CCN(C(=O)OC(C)(C)C)CC3)c2)cc1Cl` [CBK172991]: under “% viability”, the viability at 28.5 h, 10 µM was 99%. Regarding `CCS(=O)(=O)N1CC2C3c4ccccc4C(c4ccccc43)C2C1` (stereo not drawn) [CBK282328], the viability at 28.5 h, 10 µM (% viability) is 98.5%. Still for that read-out and setting: the figure for `Cc1cn([C@H]2C[C@@H](O)[C@@H](CO)O2)c(=O)nc1-n1cncn1` [CBK201235] is 82.9%; for `O=C(NC1CCCc2nc(N3CCC(CO)CC3)ncc21)C1CCCC1` (stereo not drawn) [CBK307415] it is 87.4%; for `COc1cc2cc(O)c(C)c(NCc3ccco3)c2cc1OC` [CBK013723] it is 84.4%. Consider `COc1ccc(C(=O)Nc2ccccc2OC2CCNCC2)cc1` [CBK050282T], for which the viability at 28.5 h, 10 µM (% viability) came out at 85%.

As for `CC(=O)Nc1ccc(CCOc2nccnc2-c2ccc(C)cc2C)cc1` [CBK106985], the viability at 28.5 h, 10 µM (% viability) stood at 96.7%. Consider `Cc1cnc(NC(=O)C(C)Oc2ccccc2)s1` (stereo not drawn) [CBK288250], for which the viability at 28.5 h, 10 µM (% viability) turned out to be 108%.
